Measurements reported in ChEMBL document CHEMBL1201862, “PubChem BioAssay data set” (2004).
Active and inactive are the calls of the source.

Legend:
[1] = biological target: T1, Mannose-6-phosphate isomerase (Homo sapiens, UniProt P34949); experiment: inhibitors of human PMI, primary screen, biochemical, fluorescence intensity, coupled assay (AID 1209)
T1 sequence (P34949 whole entry): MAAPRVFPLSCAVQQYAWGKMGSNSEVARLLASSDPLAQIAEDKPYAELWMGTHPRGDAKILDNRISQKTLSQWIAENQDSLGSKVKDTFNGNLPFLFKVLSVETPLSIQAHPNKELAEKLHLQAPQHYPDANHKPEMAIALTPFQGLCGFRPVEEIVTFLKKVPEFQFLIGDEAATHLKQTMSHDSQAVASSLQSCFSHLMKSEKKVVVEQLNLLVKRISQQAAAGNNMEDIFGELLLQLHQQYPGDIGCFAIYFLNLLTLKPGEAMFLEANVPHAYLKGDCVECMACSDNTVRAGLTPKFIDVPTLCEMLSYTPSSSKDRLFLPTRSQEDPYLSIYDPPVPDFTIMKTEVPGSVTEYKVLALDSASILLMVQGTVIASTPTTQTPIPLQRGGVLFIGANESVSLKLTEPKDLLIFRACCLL

T-cell = experiment: inhibitors of CD8+ T cell–vesicle binding, dose response, mouse 2C CD8+ T cells, flow cytometry (AID 485284); assay type: functional
Kallikrein-7 = Kallikrein-7 (Homo sapiens, UniProt P49862); experiment: Fluorescence Intensity-based biochemical primary high throughput dose response assay to identify activators of kallikrein-7 (K7) zymogen.
[2] = EDANS-DABCYL fluorescence interference, concentration series, dose response, artefact control for kallikrein-7 zymogen activator project, biochemical, fluorescence intensity, triplicate (AID 720493)
[3] = inhibitors of HIV Env-driven cell fusion, dose response, cherry-pick (AID 652057); assay type: functional, cell-based
Paired box protein Pax-8 = Paired box protein Pax-8 (Homo sapiens, UniProt Q06710); experiment: inhibitors of PAX8-driven TPO luciferase reporter, dose response, RMG-I cells, cherry-pick (AID 687027); assay type: functional, cell-based;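 also: luciferase reporter driven by Pax8 target thyroperoxidase promoter measured by SteadyGlo luminescence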
[4] = PAX2 cell-based inhibition, dose response, selectivity assay for PAX8 inhibitor project, plate reader, dry powder samples (AID 743048); assay type: functional;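 also: HEK293 cells carrying a WT1 promoter luciferase reporter driven by expressed Pax2; potency is for inhibition of Pax2 driven reporter signal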
[5] = NIH:OVCAR-3 ovarian cancer cell cytotoxicity, dose response, PAX8 inhibitor project, plate reader, dry powder samples (AID 743044); assay type: functional, cell-based
[6] = PAX5 activity inhibitors, dose response, selectivity assay for PAX8 inhibitor project, cell-based, plate reader, dry powder samples (AID 743047); assay type: functional;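 also: HEK293 cells carrying a Pax5 driven CD19 promoter luciferase reporter; potency of inhibitors that lower reporter luminescence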
[7] = cytotoxicity in OVCAR4 cells, dose response, cytotoxicity control for PAX8 inhibitor project, cell-based, plate reader, dry powder, SA11 (AID 743150); assay type: functional; conditions: OVCAR-4
[8] = cytotoxicity in COV434 cells, dose response, cytotoxicity control for PAX8 inhibitor project, cell-based, plate reader, dry powder, SA7 (AID 743145); assay type: functional
[9] = cytotoxicity in OV-90 ovarian cancer cells, dose response, PAX8 inhibitor project, cell-based, plate reader, dry powder, SA8 (AID 743149); assay type: functional
[10] = cytotoxicity in OVCAR8 ovarian cancer cells, dose response, PAX8 project, cell-based, plate reader, dry powder samples (AID 743197); assay type: functional; conditions: OVCAR-8
[11] = cytotoxicity dependent on PAX8, dose response, cell-based, plate reader, dry powder (AID 743049); assay type: functional
[12] = biological target: Disintegrin and metalloproteinase domain-containing protein 17 (Homo sapiens, UniProt P78536); experiment: exosite inhibitors of ADAM17, dose response, biochemical (AID 743260)
[13] = ADAM10 protease inhibitors, dose response, selectivity assay for ADAM17 exosite inhibitor project, biochemical, FRET peptide substrate, recombinant human ADAM10 (AID 743259);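 also: ADAM10 enzyme cleaving a FRET peptide substrate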
[14] = biological target: Potassium channel subfamily K member 9 (Homo sapiens, UniProt Q9NPC2); experiment: TASK3 (KCNK9) channel inhibitors, thallium flux, SAR follow-up, selectivity assay for TASK1 inhibitor project, cell-based, FluxOR thallium flux, concentration-response (AID 652211); assay type: functional;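 also: potency is for inhibitors of the channel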
[15] = biological target: Potassium channel subfamily K member 3 (Rattus norvegicus, UniProt O54912); experiment: SAR analysis for the identification of selective inhibitors of the two-pore domain potassium channel TASK1(KCNK3):Automated Electrophysiology.; assay type: functional
[16] = biological target: Potassium channel subfamily K member 3 (Homo sapiens, UniProt O14649); experiment: TASK1 (KCNK3) potassium channel inhibitors, SAR follow-up, CHO cells, FluxOR thallium flux (AID 652212); assay type: functional
[17] = biological target: Metabotropic glutamate receptor 3 (Rattus norvegicus, UniProt P31422); experiment: mGlu3 NAM potency via calcium readout, dose response, mGlu3 NAM project, TREx293 cells, Galpha15, calcium flux (AID 651840); assay type: functional
[18] = Late stage assay provider results from the probe development effort to identify selective inhibitors of heat shock protein 90 (HSP90): Absorbance-based cell proliferation assay in SKBR3 cells.; assay type: functional; conditions: SK-BR-3
[19] = Late stage assay provider results from the probe development effort to identify selective inhibitors of heat shock protein 90 (HSP90): Absorbance-based cell proliferation assay in MCF7 cells.; assay type: functional
[20] = NIH-3T3 fibroblast cytotoxicity, dose response, cytotoxicity control, cell-based, fluorescence, Alamar Blue, secondary assay (AID 2327); assay type: functional;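 also: NIH-3T3 mouse fibroblasts cultured with fluconazole at 8 µg/mL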
[21] = C. albicans growth with fluconazole, confirmation, fluorescence, retest (AID 2467); assay type: functional, cell-based
[22] = Luminescence Cell-Based Dose Retest to Confirm Inhibitors of Cancer Stem Cells. [Related pubchem assays (depositor defined):AID2717, AID2721]; assay type: functional, Homo sapiens; conditions: Homo sapiens
[23] = human group III sPLA2 inhibitors, dose response, biochemical, QFRET, IC50 (AID 743457);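 also: green fluorescence rise as the enzyme cleaves BODIPY PC-A2 in liposomes; potency for inhibition of the enzyme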
[24] = HEK293T cell cytotoxicity, dose response, cytotoxicity control, luminescence plate reader, powder samples, set 4 (AID 651863); assay type: functional, cell-based; conditions: HEK293

Chain of Metabotropic glutamate receptor 3 (P31422 whole entry): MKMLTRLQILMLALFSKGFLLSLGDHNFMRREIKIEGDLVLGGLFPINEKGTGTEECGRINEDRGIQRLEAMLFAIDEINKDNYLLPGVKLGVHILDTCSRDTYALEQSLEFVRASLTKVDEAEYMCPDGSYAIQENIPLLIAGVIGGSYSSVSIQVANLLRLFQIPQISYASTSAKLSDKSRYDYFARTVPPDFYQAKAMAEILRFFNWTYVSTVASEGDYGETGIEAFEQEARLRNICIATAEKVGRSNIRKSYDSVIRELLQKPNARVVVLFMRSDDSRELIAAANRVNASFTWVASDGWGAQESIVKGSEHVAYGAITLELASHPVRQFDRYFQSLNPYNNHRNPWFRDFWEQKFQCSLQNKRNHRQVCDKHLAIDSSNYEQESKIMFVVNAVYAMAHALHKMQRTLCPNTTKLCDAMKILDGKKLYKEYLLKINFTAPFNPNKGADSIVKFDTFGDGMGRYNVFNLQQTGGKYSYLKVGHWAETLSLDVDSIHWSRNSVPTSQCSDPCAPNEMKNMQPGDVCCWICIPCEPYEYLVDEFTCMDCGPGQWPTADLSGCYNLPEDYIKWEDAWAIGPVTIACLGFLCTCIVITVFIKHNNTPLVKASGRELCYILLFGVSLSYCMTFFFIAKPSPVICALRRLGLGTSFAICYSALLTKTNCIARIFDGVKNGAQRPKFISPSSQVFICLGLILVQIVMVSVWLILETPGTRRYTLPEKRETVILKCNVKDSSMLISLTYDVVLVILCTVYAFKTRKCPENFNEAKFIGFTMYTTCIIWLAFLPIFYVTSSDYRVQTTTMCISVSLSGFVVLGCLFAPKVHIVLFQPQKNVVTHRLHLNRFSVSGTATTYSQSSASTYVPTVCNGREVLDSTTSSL
Chain of Disintegrin and metalloproteinase domain-containing protein 17 (P78536 whole entry, the tested form may be a part): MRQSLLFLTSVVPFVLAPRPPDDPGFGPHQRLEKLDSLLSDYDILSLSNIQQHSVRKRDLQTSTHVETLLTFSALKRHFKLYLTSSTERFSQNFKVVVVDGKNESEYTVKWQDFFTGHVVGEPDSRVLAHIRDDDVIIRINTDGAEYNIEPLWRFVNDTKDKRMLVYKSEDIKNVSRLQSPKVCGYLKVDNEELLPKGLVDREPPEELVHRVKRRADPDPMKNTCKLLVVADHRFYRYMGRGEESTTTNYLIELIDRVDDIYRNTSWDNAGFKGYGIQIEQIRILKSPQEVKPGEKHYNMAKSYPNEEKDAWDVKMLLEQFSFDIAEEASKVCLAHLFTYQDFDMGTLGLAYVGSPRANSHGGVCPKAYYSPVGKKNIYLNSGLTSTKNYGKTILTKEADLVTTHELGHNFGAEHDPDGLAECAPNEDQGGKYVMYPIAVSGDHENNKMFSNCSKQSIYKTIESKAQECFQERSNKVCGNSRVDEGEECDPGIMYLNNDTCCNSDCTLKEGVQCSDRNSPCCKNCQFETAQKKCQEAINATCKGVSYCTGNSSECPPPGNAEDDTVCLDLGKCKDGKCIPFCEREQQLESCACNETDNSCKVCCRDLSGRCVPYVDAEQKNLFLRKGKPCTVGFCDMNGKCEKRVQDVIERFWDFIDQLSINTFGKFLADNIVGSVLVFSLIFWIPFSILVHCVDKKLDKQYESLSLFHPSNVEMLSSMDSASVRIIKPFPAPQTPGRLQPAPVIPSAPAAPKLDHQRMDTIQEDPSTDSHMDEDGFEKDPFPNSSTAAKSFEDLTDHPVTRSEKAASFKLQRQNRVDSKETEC
Chain of Kallikrein-7 (P49862 whole entry): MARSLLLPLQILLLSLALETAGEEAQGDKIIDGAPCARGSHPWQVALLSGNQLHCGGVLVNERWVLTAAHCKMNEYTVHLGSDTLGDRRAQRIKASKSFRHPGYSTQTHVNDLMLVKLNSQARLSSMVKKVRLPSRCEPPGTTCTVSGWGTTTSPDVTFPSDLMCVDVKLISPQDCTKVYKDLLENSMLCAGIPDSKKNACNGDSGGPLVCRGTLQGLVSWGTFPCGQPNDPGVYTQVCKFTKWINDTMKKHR
Chain of Paired box protein Pax-8 (Q06710 whole entry): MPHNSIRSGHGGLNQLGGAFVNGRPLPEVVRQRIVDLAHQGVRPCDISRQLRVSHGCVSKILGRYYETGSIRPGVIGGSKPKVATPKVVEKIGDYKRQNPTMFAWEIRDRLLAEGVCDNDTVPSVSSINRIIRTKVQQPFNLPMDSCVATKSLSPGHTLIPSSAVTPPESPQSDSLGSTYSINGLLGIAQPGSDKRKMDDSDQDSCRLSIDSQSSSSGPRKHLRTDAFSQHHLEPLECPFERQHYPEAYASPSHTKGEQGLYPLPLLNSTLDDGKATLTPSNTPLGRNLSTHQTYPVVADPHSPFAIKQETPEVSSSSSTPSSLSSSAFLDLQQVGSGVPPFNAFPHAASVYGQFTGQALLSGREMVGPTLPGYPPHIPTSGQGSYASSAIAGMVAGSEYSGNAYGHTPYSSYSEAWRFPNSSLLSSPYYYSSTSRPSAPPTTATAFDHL
Chain of Potassium channel subfamily K member 9 (Q9NPC2 whole entry, the tested form may be a part): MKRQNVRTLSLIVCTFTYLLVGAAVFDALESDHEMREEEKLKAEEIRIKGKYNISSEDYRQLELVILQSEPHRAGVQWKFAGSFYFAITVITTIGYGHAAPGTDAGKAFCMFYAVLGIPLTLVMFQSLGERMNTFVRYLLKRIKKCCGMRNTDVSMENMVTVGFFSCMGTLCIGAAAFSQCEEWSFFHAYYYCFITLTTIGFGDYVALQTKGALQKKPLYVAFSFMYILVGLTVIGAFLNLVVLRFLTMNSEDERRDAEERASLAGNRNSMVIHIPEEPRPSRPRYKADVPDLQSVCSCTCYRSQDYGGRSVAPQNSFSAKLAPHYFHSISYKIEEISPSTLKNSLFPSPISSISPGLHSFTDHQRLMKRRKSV
Chain of Potassium channel subfamily K member 3 (Homo sapiens, UniProt O14649) (O14649 whole entry): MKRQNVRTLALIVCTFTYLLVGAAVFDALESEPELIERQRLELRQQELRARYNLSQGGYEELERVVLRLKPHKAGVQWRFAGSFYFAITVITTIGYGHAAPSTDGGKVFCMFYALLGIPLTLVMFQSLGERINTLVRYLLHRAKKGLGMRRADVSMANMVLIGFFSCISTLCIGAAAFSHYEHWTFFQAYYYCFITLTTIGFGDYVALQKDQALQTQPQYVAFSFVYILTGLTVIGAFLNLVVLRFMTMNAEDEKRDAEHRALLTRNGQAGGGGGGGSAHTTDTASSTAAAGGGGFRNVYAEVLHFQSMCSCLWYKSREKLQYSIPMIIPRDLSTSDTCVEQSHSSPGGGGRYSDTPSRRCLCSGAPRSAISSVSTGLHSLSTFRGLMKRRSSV
Chain of Potassium channel subfamily K member 3 (Rattus norvegicus, UniProt O54912) (O54912 whole entry, the tested form may be a part): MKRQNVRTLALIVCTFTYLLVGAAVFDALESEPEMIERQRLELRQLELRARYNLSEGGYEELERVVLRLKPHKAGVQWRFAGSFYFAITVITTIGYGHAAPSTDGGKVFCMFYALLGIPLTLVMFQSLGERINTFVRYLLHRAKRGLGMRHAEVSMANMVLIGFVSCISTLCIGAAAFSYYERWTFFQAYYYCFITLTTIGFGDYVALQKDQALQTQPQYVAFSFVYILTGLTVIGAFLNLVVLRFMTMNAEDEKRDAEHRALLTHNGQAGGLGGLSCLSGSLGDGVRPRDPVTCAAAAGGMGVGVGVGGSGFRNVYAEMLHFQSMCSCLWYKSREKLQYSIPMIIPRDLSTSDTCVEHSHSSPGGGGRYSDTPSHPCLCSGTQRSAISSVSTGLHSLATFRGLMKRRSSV

In the case of `Cc1c2cccn2cc[n+]1C`, the IC50 [1] is reported as > 50 µM (not active), the EC50 (T-cell) is reported as 79.2 µM (inactive) and the EC50 (Kallikrein-7) is reported as 17.5 µM (inactive). For the same compound, the EC50 [2] was > 7.72 µM (active).

In the case of `COc1ccccc1C#Cc1ccc2c(c1)O[C@@H](CN(C)Cc1ccncc1)[C@H](C)CN([C@H](C)CO)S2(=O)=O`, the AC50 [3] is reported as 42.1 µM (active), the AC50 (Paired box protein Pax-8) is reported as 2.39 µM (active) and the AC50 [4] is reported as 2.28 µM (active). The AC50 [5] was 13.3 µM (active), the AC50 [6] was 9.35 µM (active) and the AC50 [7] was 11.5 µM (active). The AC50 [8] was 0.0946 nM (active), the AC50 [9] was 7.34 µM (active) and the AC50 [10] was 27.7 µM (active). For the same compound, the AC50 [11] was 4.51 µM (active).

In the case of `CCOC(=O)c1c(NC(=O)Cn2nc(C(F)F)cc2C(F)F)sc(C)c1C`, the IC50 [12] is reported as > 69.5 µM (inactive) and the IC50 [13] is reported as > 69.5 µM (inactive).

With `Cc1cccc(C(=O)Nc2cccc(NC(=O)c3ccccc3)c2)c1` the IC50 [14] was 360 nM (active), the IC50 [15] was 75 nM (active) and the IC50 [16] was 15 nM (active).

For `COc1ccc(C#Cc2ccc(C(=O)N3CCC(=O)C(C)C3)cc2)cc1` (configuration not stated), the IC50 [17] was 8.95 µM.

With `Cc1c(Cl)c(=O)oc2c(C)c(OCc3ccccc3)ccc12` the IC50 [18] was > 100 µM (inactive) and the IC50 [19] was > 100 µM (inactive).

For `Cc1cc(C)c2nc(NNC(=O)c3cc(-c4cccs4)nc4ccccc34)sc2c1`, the EC50 [20] was 10.7 µM (active), the EC50 [21] was > 38 µM (not active) and the AC50 [22] was 2.13 µM (active). For the same compound, the IC50 [23] was 53.9 µM (inactive).

In the case of `Cc1ccc(S(=O)(=O)NNc2nc(NCC(N)=O)nc3ccccc23)cc1`, the AC50 [24] is reported as > 52 µM (inactive).
